Results as given in patent publication US20230053688A1, “METHODS TO ALTER LATENCY IN EBV+ MALIGNANCIES” (Cornell University, priority 2020, published 2023).
Counter-ions that a name gives are not always drawn. Like-named read-outs stand apart in the source and are kept apart here.

Tested on: LMP1 expression in Kem I cells
Experiment: microbe, parasite or virus in culture
Assay type: cell-based, EBV
Conditions: for fold induction at 2.5 µM: human gammaherpesvirus 4, 48 h; for Average LMP1 Fold Increase / Replicate 1-LMP1 Fold Increase / Replicate 2-LMP1 Fold Increase: Kem I cells, 48 hours
[1] = read-out: Average LMP1 Fold Increase, Kem I cells, 2.5 uM, 48 hours, average of replicates 1 and 2
[2] = read-out: Replicate 1-LMP1 Fold Increase, Kem I cells, 2.5 uM, 48 hours, fold change in LMP1 transcript vs vehicle
[3] = read-out: Replicate 2-LMP1 Fold Increase, Kem I cells, 2.5 uM, 48 hours, fold change in LMP1 transcript vs vehicle
[4] = dose 2.5 uM, LMP1 transcript by in-well qRT-PCR, average of the two replicates
[5] = dose 2.5 uM, LMP1 transcript by in-well qRT-PCR, screen replicate 1
[6] = dose 2.5 uM, LMP1 transcript by in-well qRT-PCR, screen replicate 2
[7] = 2.5 uM, average of replicates 1 and 2
[8] = 2.5 uM, fold change in LMP1 transcript vs vehicle
[9] = read-out: Average LMP1 Fold Increase, Kem I cells, dose 2.5 uM, 48 hours, LMP1 transcript by in-well qRT-PCR, average of the two replicates
[10] = read-out: Replicate 1-LMP1 Fold Increase, Kem I cells, dose 2.5 uM, 48 hours, LMP1 transcript by in-well qRT-PCR, screen replicate 1
[11] = read-out: Replicate 2-LMP1 Fold Increase, Kem I cells, dose 2.5 uM, 48 hours, LMP1 transcript by in-well qRT-PCR, screen replicate 2

Compound: CC[C@H](C)C(=O)O[C@H]1C[C@@H](C)C=C2C=C[C@H](C)[C@H](CC[C@@H]3C[C@@H](O)CC(=O)O3)[C@H]21 [Lovastatin]
- fold induction at 2.5 µM [1]: 0.96
- fold induction at 2.5 µM [2]: 0.34
- fold induction at 2.5 µM [3]: 1.59

Compound: CNC(=O)c1ccc2cc([C@@]3(O)CCn4cncc43)ccc2c1 [TAK-700 (Orteronel)]
- Average LMP1 Fold Increase [4]: 0.90 fold
- Replicate 1-LMP1 Fold Increase [5]: 0.75 fold
- Replicate 2-LMP1 Fold Increase [6]: 1.06 fold

Compound: CCCN[C@H]1CCc2nc(N)sc2C1 [Pramipexole]
- fold induction at 2.5 µM [1]: 0.93
- fold induction at 2.5 µM [2]: 0.6
- fold induction at 2.5 µM [3]: 1.27

Compound: CC(C)(C)c1cc(/C=C(\C#N)C(N)=S)cc(C(C)(C)C)c1O [Tyrphostin AG 879]
- Average LMP1 Fold Increase [4]: 0.74 fold
- Replicate 1-LMP1 Fold Increase [5]: 0.53 fold
- Replicate 2-LMP1 Fold Increase [6]: 0.95 fold

Compound: COc1ccc(-n2nc(C(N)=O)c3c2C(=O)N(c2ccc(N4CCCCC4=O)cc2)CC3)cc1 [Apixaban]
- fold induction at 2.5 µM [1]: 0.32
- fold induction at 2.5 µM [2]: 0.4
- fold induction at 2.5 µM [3]: 0.24

Compound: CN1CCc2cc3c(cc2[C@H]1[C@@H]1OC(=O)c2c1ccc1c2OCO1)OCO3 [(+)-Bicuculline]
- Average LMP1 Fold Increase [7]: 0.89
- Replicate 1-LMP1 Fold Increase [8]: 0.86
- Replicate 2-LMP1 Fold Increase [8]: 0.93

Compound: CCOC(=O)[C@H]1O[C@@H]1C(=O)N[C@@H](CC(C)C)C(=O)NCCC(C)C [Aloxistatin]
- fold induction at 2.5 µM [1]: 0.11
- fold induction at 2.5 µM [2]: 0.1
- fold induction at 2.5 µM [3]: 0.12

Compound: CN(C)C(=O)[C@H](O)[C@H](Cc1ccccc1)NC(=O)c1cc2cc(Cl)ccc2[nH]1 [CP-91149]
- Average LMP1 Fold Increase [7]: 0.64
- Replicate 1-LMP1 Fold Increase [8]: 0.49
- Replicate 2-LMP1 Fold Increase [8]: 0.80

Compound: CN1CCC[C@@H]1CCO[C@](C)(c1ccccc1)c1ccc(Cl)cc1 [Clemastine Fumarate]
- fold induction at 2.5 µM [1]: 0.67
- fold induction at 2.5 µM [2]: 0.64
- fold induction at 2.5 µM [3]: 0.69

Compound: NC(=O)c1ccc(-c2nc(-c3ccccn3)c(-c3ccc4c(c3)OCO4)[nH]2)cc1 [SB431542]
- Average LMP1 Fold Increase [7]: 0.71
- Replicate 1-LMP1 Fold Increase [8]: 0.82
- Replicate 2-LMP1 Fold Increase [8]: 0.61

Compound: CN1CC(=O)N2[C@H](c3ccc4c(c3)OCO4)c3[nH]c4ccccc4c3C[C@@H]2C1=O [Tadalafil]
- fold induction at 2.5 µM [9]: 3.06
- fold induction at 2.5 µM [10]: 3.8
- fold induction at 2.5 µM [11]: 2.32

Compound: COc1ccc(C2CNC(=O)C2)cc1OC1CCCC1 (stereo not drawn) [Rolipram]
- fold induction at 2.5 µM [1]: 0.94
- fold induction at 2.5 µM [2]: 1.13
- fold induction at 2.5 µM [3]: 0.75

Compound: CNC(=O)c1cc(Oc2ccc(NC(=O)Nc3ccc(Cl)c(C(F)(F)F)c3)cc2)ccn1 [Sorafenib]
- fold induction at 2.5 µM [1]: 0.54
- fold induction at 2.5 µM [2]: 0.43
- fold induction at 2.5 µM [3]: 0.64

Compound: O=C(O[C@H]1C[C@H]2CC[C@@H](C1)[N+]21CCCC1)C(O)(c1ccccc1)c1ccccc1 [Trospium chloride]
- fold induction at 2.5 µM [9]: 0.35
- fold induction at 2.5 µM [10]: 0.33
- fold induction at 2.5 µM [11]: 0.37

Compound: CCN1CCN(c2ccc(Nc3cc(N(C)C(=O)Nc4c(Cl)c(OC)cc(OC)c4Cl)ncn3)cc2)CC1 [BGJ398 (NVP-BGJ398)]
- Average LMP1 Fold Increase [7]: 0.85
- Replicate 1-LMP1 Fold Increase [8]: 1.02
- Replicate 2-LMP1 Fold Increase [8]: 0.69

Compound: C=C[C@@]1(C)CC(=O)[C@]2(O)[C@@]3(C)[C@@H](O)CCC(C)(C)[C@@H]3[C@H](O)[C@H](OC(C)=O)[C@@]2(C)O1 [Forskolin]
- fold induction at 2.5 µM [1]: 1.25
- fold induction at 2.5 µM [2]: 1.39
- fold induction at 2.5 µM [3]: 1.11

Compound: Cc1ccc(C(=O)N(CCCN)[C@@H](c2nc3cc(Cl)ccc3c(=O)n2Cc2ccccc2)C(C)C)cc1 [Ispinesib (SB-715992)]
- Average LMP1 Fold Increase [7]: 1.57
- Replicate 1-LMP1 Fold Increase [8]: 2.72
- Replicate 2-LMP1 Fold Increase [8]: 0.43

Compound: Nc1ncnc2c1c(-c1cccc(OCc3ccccc3)c1)cn2C1CC(CN2CCCC2)C1 (stereo not drawn) [NVP-ADW742]
- Average LMP1 Fold Increase [7]: 0.40
- Replicate 1-LMP1 Fold Increase [8]: 0.27
- Replicate 2-LMP1 Fold Increase [8]: 0.53

Compound: Cc1c(C(=O)Nc2ccc(N3C[C@@H](C)O[C@@H](C)C3)nc2)cccc1-c1ccc(OC(F)(F)F)cc1 [LDE225 (NVP-LDE225, Erismodegib)]
- Average LMP1 Fold Increase [7]: 0.39
- Replicate 1-LMP1 Fold Increase [8]: 0.50
- Replicate 2-LMP1 Fold Increase [8]: 0.29

Compound: CC[C@@H]1C(=O)N(C)c2cnc(Nc3ccc(C(=O)NC4CCN(C)CC4)cc3OC)nc2N1C1CCCC1 [BI 2536]
- fold induction at 2.5 µM [1]: 12.6
- fold induction at 2.5 µM [2]: 23.3
- fold induction at 2.5 µM [3]: 1.89

Compound: CCOc1ccc(Cc2cc([C@@H]3O[C@H](CO)[C@@H](O)[C@H](O)[C@H]3O)ccc2Cl)cc1 [Dapagliflozin]
- fold induction at 2.5 µM [1]: 1.01
- fold induction at 2.5 µM [2]: 0.69
- fold induction at 2.5 µM [3]: 1.34

Compound: Cc1ccc(-n2nccn2)c(C(=O)N2CCN(c3nc4cc(Cl)ccc4o3)CC[C@H]2C)c1 [Suvorexant (MK-4305)]
- Average LMP1 Fold Increase [4]: 1.47 fold
- Replicate 1-LMP1 Fold Increase [5]: 0.37 fold
- Replicate 2-LMP1 Fold Increase [6]: 2.57 fold

Compound: COc1ccc(C(=O)N2CCCC2=O)cc1 [Aniracetam]
- fold induction at 2.5 µM [1]: 0.55
- fold induction at 2.5 µM [2]: 0.72
- fold induction at 2.5 µM [3]: 0.39

Compound: Pifithrin-μ
- Average LMP1 Fold Increase [7]: 0.78
- Replicate 1-LMP1 Fold Increase [8]: 0.40
- Replicate 2-LMP1 Fold Increase [8]: 1.17

Compound: CNC(=C[N+](=O)[O-])NCCSCc1ccc(CN(C)C)o1 [Ranitidine]
- fold induction at 2.5 µM [1]: 1.04
- fold induction at 2.5 µM [2]: 0.9
- fold induction at 2.5 µM [3]: 1.18

Compound: CCCCN1CCCCC1C(=O)Nc1c(C)cccc1C (stereo not drawn) [Bupivacaine HCl]
- fold induction at 2.5 µM [1]: 0.59
- fold induction at 2.5 µM [2]: 0.64
- fold induction at 2.5 µM [3]: 0.53

Compound: C[C@@H](NCCCc1cccc(C(F)(F)F)c1)c1cccc2ccccc12 [Cinacalcet HCl]
- fold induction at 2.5 µM [1]: 0.75
- fold induction at 2.5 µM [2]: 1.17
- fold induction at 2.5 µM [3]: 0.34

Compound: CCOC(=O)CCNc1cc(N2CCc3ccccc3CC2)nc(-c2ccccn2)n1.Cl [GSK J4 HCl]
- Average LMP1 Fold Increase [7]: 32.34
- Replicate 1-LMP1 Fold Increase [8]: 48.53
- Replicate 2-LMP1 Fold Increase [8]: 16.15

Compound: O=C(Nc1cc(C(F)(F)F)ccc1N1CCCCC1)c1ccncc1 [SRPIN340]
- Average LMP1 Fold Increase [7]: 0.84
- Replicate 1-LMP1 Fold Increase [8]: 1.24
- Replicate 2-LMP1 Fold Increase [8]: 0.44

Compound: CS(=O)(=O)c1ccc(-c2cnc(N)c(C(=O)Nc3ccccc3)n2)cc1 [VE-821]
- fold induction at 2.5 µM [9]: 0.17
- fold induction at 2.5 µM [10]: 0.2
- fold induction at 2.5 µM [11]: 0.14

Compound: CCc1cncnc1N1CCN(Cc2nc3ccc(C(F)(F)F)cc3[nH]2)CC1 [PF-4708671]
- Average LMP1 Fold Increase [7]: 0.74
- Replicate 1-LMP1 Fold Increase [8]: 1.30
- Replicate 2-LMP1 Fold Increase [8]: 0.18

Compound: Cc1cc(Nc2ncc(Cl)c(Nc3ccccc3S(=O)(=O)C(C)C)n2)c(OC(C)C)cc1C1CCNCC1 [LDK378]
- fold induction at 2.5 µM [1]: 0.67
- fold induction at 2.5 µM [2]: 0.85
- fold induction at 2.5 µM [3]: 0.49

Compound: C[C@@H]1O[C@@H](O[C@H]2C[C@@H](O)[C@]3(CO)[C@H]4[C@H](O)C[C@]5(C)[C@@H](C6=CC(=O)OC6)CC[C@]5(O)[C@@H]4CC[C@]3(O)C2)[C@H](O)[C@H](O)[C@H]1O [Ouabain]
- fold induction at 2.5 µM [1]: 92.1
- fold induction at 2.5 µM [2]: 22.8
- fold induction at 2.5 µM [3]: 161

Compound: COc1cc(-c2ncn(/C=C\C(=O)OC(C)C)n2)cc(C(F)(F)F)c1 [KPT-185]
- Average LMP1 Fold Increase [7]: 0.68
- Replicate 1-LMP1 Fold Increase [8]: 0.56
- Replicate 2-LMP1 Fold Increase [8]: 0.80

Compound: CCn1c(-c2nonc2N)nc2c(C#CC(C)(C)O)ncc(OC[C@H]3CCCNC3)c21 [GSK690693]
- Average LMP1 Fold Increase [7]: 0.63
- Replicate 1-LMP1 Fold Increase [8]: 0.85
- Replicate 2-LMP1 Fold Increase [8]: 0.41

Compound: CCN[C@H]1CN(CCCOC)S(=O)(=O)c2sc(S(N)(=O)=O)cc21 [Brinzolamide]
- fold induction at 2.5 µM [1]: 0.21
- fold induction at 2.5 µM [2]: 0.23
- fold induction at 2.5 µM [3]: 0.2

Compound: CCC(CC)CC1(C(=O)Nc2ccccc2SC(=O)C(C)C)CCCCC1 [Dalcetrapib (JTT-705, RO4607381)]
- Average LMP1 Fold Increase [7]: 0.98
- Replicate 1-LMP1 Fold Increase [8]: 0.61
- Replicate 2-LMP1 Fold Increase [8]: 1.34

Compound: C=CC(=O)Nc1cccc(Nc2nc(Nc3ccc(OCCOC)cc3)ncc2F)c1 [AVL-292]
- Average LMP1 Fold Increase [7]: 0.52
- Replicate 1-LMP1 Fold Increase [8]: 0.48
- Replicate 2-LMP1 Fold Increase [8]: 0.56

Compound: CC(C)C[C@H](NC(=O)[C@@H](NC(=O)c1cccc(-c2ccccc2)n1)[C@@H](C)O)B(O)O [CEP-18770 (Delanzomib)]
- Average LMP1 Fold Increase [7]: 96.92
- Replicate 1-LMP1 Fold Increase [8]: 98.21
- Replicate 2-LMP1 Fold Increase [8]: 95.63

Compound: VU 0364770
- Average LMP1 Fold Increase [4]: 1.03 fold
- Replicate 1-LMP1 Fold Increase [5]: 0.51 fold
- Replicate 2-LMP1 Fold Increase [6]: 1.55 fold

Compound: CCCCCCCCCCCC1=C(O)C(=O)C=C(O)C1=O [Embelin]
- fold induction at 2.5 µM [1]: 0.59
- fold induction at 2.5 µM [2]: 0.43
- fold induction at 2.5 µM [3]: 0.74

Compound: C[C@]1(O)C[C@@H](c2nc(-c3ccc4ccc(-c5ccccc5)nc4c3)c3c(N)nccn32)C1 [OSI-906 (Linsitinib)]
- Average LMP1 Fold Increase [7]: 0.81
- Replicate 1-LMP1 Fold Increase [8]: 0.68
- Replicate 2-LMP1 Fold Increase [8]: 0.94

Compound: O=C(NNc1nc2cc(F)ccc2n2cccc12)c1cnccn1 [SC144]
- Average LMP1 Fold Increase [7]: 1.51
- Replicate 1-LMP1 Fold Increase [8]: 1.00
- Replicate 2-LMP1 Fold Increase [8]: 2.02
